Measured values from patent US20230219925A1, “BENZO FIVE-MEMBERED NITROGEN HETEROCYCLIC COMPOUND AND APPLICATION THEREOF” (GUANGZHOU INSTITUTES OF BIOMEDICINE AND HEALTH CHINESE …, priority 2020, published 2023).
Read-outs that look alike come from different tables or passages of the source.

Experiments:
[1] = test system: LNCaP; assay: Cell viability (Cell-Titer GLO), LNCaP
Procedure: (§1) Experimental method: 20 μL of a medium containing 500 to 1000 cells to be detected (the actual number of cells was related to cell cycle and cell volume) was plated into each well of the 384-well clear-bottom microplate. […] An inhibition curve was fitted by GraphPad Prism software, and IC50 was calculated.

[2] = test system: C4-2B; assay: Cell viability (Cell-Titer GLO), C4-2B; conditions: read-out: Cell Viability IC50 C4-2B
Procedure: as §1

[3] = test system: 22Rv1; assay: Cell viability (Cell-Titer GLO), 22Rv1
Procedure: as §1

[4] = test system: 22Rv1 xenograft; conditions: for TGI: five days a week for three weeks
Procedure: Experimental purpose: a xenograft mouse experiment was used for verifying inhibitory effects of the compounds of the present application on tumors in vivo.
Experimental methods: three-week-old male mice (strain: NOD/MrkBomTac-Prkdc^scid) were purchased from Beijing Vital River Laboratory Animal Technology Co., Ltd and used for xenograft tumor establishment. 22Rv1 tumor cells were subcutaneously inoculated on a side of a lower abdomen of each mouse, and each mouse was injected with 3×10^6 cells. […] When the tumor volumes reached about 100 mm^3, the mice were randomly divided into groups (n=6-7 per group) and then administered through oral gavage. […] The length (L) and width (W) of the tumor mass were measured by a caliper, and the volume was expressed in mm^3 and calculated according to the following formula: V=π/6×(L×W^2). TGI was calculated according to the following formula: TGI=[1−(T−T0)/(C−C0)]×100, where T denoted a mean tumor volume on a specific day of the experiment and T0 denoted a mean tumor volume at the beginning of the treatment; similarly, C and C0 denoted a mean tumor volume on a specific day of the experiment and a mean tumor volume of a blank group at the beginning of the treatment, respectively.
Data represented mean tumor volume standard deviation (n=6-7 per group) in each treatment group.

[5] = Pharmacokinetic evaluations in SD rats; assay type: in vivo; conditions: Sprague-Dawley, rat, plasma
Procedure: Experimental materials: the pharmacokinetic analyses were carried out by Shanghai Medicilon Corporation. Sprague-Dawley (SD) rats were provided by Shanghai Super-B&K Laboratory Animal Corp., Ltd.
The stock solution was orally administered to three SD rats at a dose of 25 mg/kg and administered to three SD rats through intravenous injection at a single dose of 5 mg/kg. Blood was collected from jugular veins before the oral administration and 0.25, 0.5, 1, 2, 4, 6, 8 and 24 hours after the oral administration. Blood was collected from jugular veins before the intravenous injection and 0.083, 0.25, 0.5, 1, 2, 4, 6, 8 and 24 hours after the intravenous injection. About 200 μL of the blood samples were collected into heparinized tubes and then immediately centrifuged at 8000 r/min for 6 minutes to obtain blood plasma. The obtained blood plasma was storaged at −80° C. until analysis.

[6] = target: T1, hRORγ (Homo sapiens, UniProt P51449); assay: protein thermal stability shift assay (TSA)
T1 sequence (P51449 1-518): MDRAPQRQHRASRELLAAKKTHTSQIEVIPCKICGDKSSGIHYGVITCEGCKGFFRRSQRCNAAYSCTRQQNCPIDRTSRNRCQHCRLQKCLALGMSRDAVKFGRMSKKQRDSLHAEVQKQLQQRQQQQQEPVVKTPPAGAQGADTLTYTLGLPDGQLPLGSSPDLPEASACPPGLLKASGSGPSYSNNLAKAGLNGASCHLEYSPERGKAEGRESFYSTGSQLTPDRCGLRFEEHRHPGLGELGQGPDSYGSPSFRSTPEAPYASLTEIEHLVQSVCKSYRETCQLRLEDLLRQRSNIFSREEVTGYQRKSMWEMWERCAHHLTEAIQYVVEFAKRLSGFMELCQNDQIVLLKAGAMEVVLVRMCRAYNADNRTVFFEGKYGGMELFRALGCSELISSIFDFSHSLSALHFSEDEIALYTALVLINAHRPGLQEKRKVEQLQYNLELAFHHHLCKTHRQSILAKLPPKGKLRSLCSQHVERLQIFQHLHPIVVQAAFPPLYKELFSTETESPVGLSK

[7] = target: T2, RORγ (Homo sapiens, UniProt P51449); assay: luciferase dual reporter gene assay, Gal4-RORγLBD in 293T cells
T2 sequence (P51449 269-508 limits assumed): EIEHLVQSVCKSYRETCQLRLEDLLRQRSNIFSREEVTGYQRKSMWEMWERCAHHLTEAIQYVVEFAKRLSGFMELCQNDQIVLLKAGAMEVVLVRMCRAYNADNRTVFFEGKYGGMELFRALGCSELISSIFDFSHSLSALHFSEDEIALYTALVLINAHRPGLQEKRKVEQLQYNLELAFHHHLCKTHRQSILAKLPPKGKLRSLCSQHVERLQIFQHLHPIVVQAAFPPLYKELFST
Procedure: On the day before transfection, cells were prepared in the 96-well plate with a cell density of 1.5×10^4 cells/well. After 24 hours of adherent growth, transient transfection was performed with the transfection reagent Lipo-fectamine 2000 through a method of dual reporter gene co-transfection. The transfection reagent and the plasmids were separately diluted with the Opti-MEM Reagent. Gal4-RORγLBD (25 ng), pG5-luc genes (25 ng) and Renilla (5 ng) were added to each well, and after 24 hours of co-transfection, compounds having different concentrations were added. After 24 hours of incubation, the luciferase dual reporter gene detection assay kit was used for detecting luminescence signals. Three duplicate wells were set for each sample, and IC50 values (half maximal inhibitory concentrations) were calculated by software.

[8] = target: T3, LXRα (Homo sapiens, UniProt Q13133); assay: Gal4-LBD luciferase selectivity test, LXRα
T3 sequence (Q13133 209-447 limits assumed): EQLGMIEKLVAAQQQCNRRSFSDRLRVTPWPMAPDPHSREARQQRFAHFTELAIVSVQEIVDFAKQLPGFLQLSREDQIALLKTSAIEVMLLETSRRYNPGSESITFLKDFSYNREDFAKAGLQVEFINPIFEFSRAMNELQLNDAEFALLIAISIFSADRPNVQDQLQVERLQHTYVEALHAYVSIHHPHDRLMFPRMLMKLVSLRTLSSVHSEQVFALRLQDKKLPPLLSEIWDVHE
Procedure: (§2) On the day before transfection, cells were prepared in the 96-well plate with a cell density of 1.5×10^4 cells/well. After 24 hours of adherent growth, transient transfection was performed with the transfection reagent Lipo-fectamine 2000 through a method of dual reporter gene co-transfection. The transfection reagent and the plasmids were separately diluted with the Opti-MEM Reagent. […] After 24 hours of incubation, the luciferase dual reporter gene detection assay kit was used for detecting luminescence signals. Three duplicate wells were set for each sample, and IC50 values (half maximal inhibitory concentrations) were calculated by software.

[9] = target: T4, FXR (Homo sapiens, UniProt Q96RI1); assay: Gal4-LBD luciferase selectivity test, FXR
T4 sequence (Q96RI1 262-486 limits assumed): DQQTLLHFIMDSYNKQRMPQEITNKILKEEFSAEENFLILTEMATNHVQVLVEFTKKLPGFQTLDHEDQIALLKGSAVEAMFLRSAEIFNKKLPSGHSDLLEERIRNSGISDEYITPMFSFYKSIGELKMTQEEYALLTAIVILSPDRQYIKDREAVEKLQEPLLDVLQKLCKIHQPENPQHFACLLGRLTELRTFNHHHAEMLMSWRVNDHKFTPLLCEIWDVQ
Procedure: as §2

[10] = target: T5, RORα (Homo sapiens, UniProt P35398); assay: Gal4-LBD luciferase selectivity test, RORα
T5 sequence (P35398 272-510 limits assumed): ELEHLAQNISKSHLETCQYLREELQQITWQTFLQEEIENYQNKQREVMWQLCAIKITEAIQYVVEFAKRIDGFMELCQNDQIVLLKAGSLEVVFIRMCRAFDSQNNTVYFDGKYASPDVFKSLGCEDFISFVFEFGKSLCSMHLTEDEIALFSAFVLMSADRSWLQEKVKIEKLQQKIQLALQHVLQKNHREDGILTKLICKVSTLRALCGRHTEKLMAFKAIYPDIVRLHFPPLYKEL
Procedure: as §2

[11] = target: T6, RORβ (Homo sapiens, UniProt Q92753); assay: Gal4-LBD luciferase selectivity test, RORβ
T6 sequence (Q92753 222-460 limits assumed): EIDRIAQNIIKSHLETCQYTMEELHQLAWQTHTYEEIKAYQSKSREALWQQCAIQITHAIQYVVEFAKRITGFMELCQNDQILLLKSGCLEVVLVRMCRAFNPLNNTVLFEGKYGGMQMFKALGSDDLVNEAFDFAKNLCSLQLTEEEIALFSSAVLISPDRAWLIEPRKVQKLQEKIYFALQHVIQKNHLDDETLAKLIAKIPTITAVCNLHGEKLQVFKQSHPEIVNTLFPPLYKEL
Procedure: as §2

[12] = read-out: ΔTm (TSA detection technique), hRORγ 10 μM, compound 200 μM
[13] = IC50 (luciferase detection technique), RORγ transcriptional activity, Table 1

SMILES: OC(c1ccc(-c2ccc(CN3CCN(Cc4ccncc4)CC3)cc2)c(F)c1)(C(F)(F)F)C(F)(F)F [SR2211, reference compound]
- IC50 ([1]; read-out: Cell Viability IC50 LNCaP, 72-96 h): 6.14 ± 0.04 µM
- IC50 ([2]; C4-2B, 72-96 h): 5.38 ± 0.27 µM
- IC50 ([3]; read-out: Cell Viability IC50 22Rv1, 22Rv1, 72-96 h): 13.3 ± 1.22 µM

SMILES: CCS(=O)(=O)c1ccc(CC(=O)Nc2ccc(-c3nc4ccc(C(F)(F)F)cc4n3[C@@H](C)c3ccc(F)cc3)cc2)cc1 [Example 68, (S)-2-(4-(ethylsulfonyl)phenyl)-N-(4-(1-(1-(4-fluorophenyl)ethyl)-6-(trifluoromethyl)-1H-benzo[d]imidazol-2-yl)phenyl)acetamide]
- TGI ([4]; 10 mg/kg oral): 83%
- TGI ([4]; 40 mg/kg oral): 109%
- toxic effect ([4]; 22Rv1 mouse xenograft models, all doses): without any apparent toxic effect
- variations of weights of mice during administration ([4]; all doses (10 and 40 mg/kg oral)): no apparent variations in weight
- Cmax ([5]; iv (5 mg/kg)): 14800 ng/mL
- Cmax ([5]; po (25 mg/kg)): 5730 ng/mL

SMILES: CCS(=O)(=O)c1ccc(CC(=O)Nc2ccc(-c3nc4ccc(C(F)(F)F)cc4n3[C@H](C)c3ccc(F)cc3)cc2)cc1 [Example 67, (R)-2-(4-(ethylsulfonyl)phenyl)-N-(4-(1-(1-(4-fluorophenyl)ethyl)-6-(trifluoromethyl)-1H-benzo[d]imidazol-2-yl)phenyl)acetamide]
- Cmax ([5]; iv (5 mg/kg)): 18400 ng/mL

SMILES: CCCCCn1c(-c2ccc(NC(=O)C(NC(C)=O)c3ccc(S(=O)(=O)CC)cc3)cn2)nc2ccc(C)cc21 (centres unmarked) [Example 81, 2-acetylamino-2-(4-(ethylsulfonyl)phenyl)-N-(6-(6-methyl-1-pentyl-1H-benzo[d]imidazol-2-yl)pyridin-3-yl)acetamide]
- ΔTm at 200 µM ([6]; read-out: ΔTm (TSA detection technique)): < 5 °C
- IC50 [7]: < 0.1 µM

SMILES: CCCCCn1c(-c2ccc(NC(=O)C(NC(C)=O)c3ccc(S(=O)(=O)CC)cc3)cc2)nc2ccc(C)cc21 (centres unmarked) [Example 76, 2-acetylamino-2-(4-(ethylsulfonyl)phenyl)-N-(4-(6-methyl-1-pentyl-1H-benzo[d]imidazol-2-yl)phenyl)acetamide]
- ΔTm at 200 µM [6, 12]: < 5 °C
- IC50 [7, 13]: < 0.1 µM

SMILES: CCS(=O)(=O)c1ccc(C(NC(C)=O)C(=O)Nc2ccc(-c3nc4ccc(C)cc4n3[C@@H](C)c3ccc(C)cc3)cc2)cc1 (single isomer, unassigned) [Example 74]
- IC50 ([1]; Homo sapiens, read-out: Cell Viability IC50 LNCaP): 5.2 ± 0.14 µM
- IC50 [2]: 4.19 ± 0.34 µM
- IC50 ([3]; Homo sapiens, 22Rv1, read-out: Cell Viability IC50 22Rv1): 10.4 ± 1.01 µM
- IC50 [8]: > 20 µM
- IC50 [9]: > 20 µM
- ΔTm at 200 µM [6, 12]: < 5 °C
- IC50 [7, 13]: < 0.1 µM
- IC50 [10]: > 20 µM
- IC50 [11]: > 20 µM
